Assay results from PubChem BioAssay AID652110 (The Scripps Research Institute Molecular Screening Center, 2013).
Activity calls are given as the source filed them. No rule for the calls is given here.

Biological target: Serine/threonine-protein phosphatase PP1-alpha catalytic subunit (Homo sapiens) (UniProt P62136)
Experiment: PP1 inhibitors on glycogen phosphorylase dephosphorylation, late-stage follow-up, PP1 inhibitor probe project, biochemical, radiolabel, 32P-phosphorylase substrate, single concentration (AID 652110)
Conditions: PP1 dephosphorylation of 32P-glycogen phosphorylase, at 50 µM, stronger effect = higher value

Serine/threonine-protein phosphatase PP1-alpha catalytic subunit (Homo sapiens), sequence (P62136 whole entry, looked up): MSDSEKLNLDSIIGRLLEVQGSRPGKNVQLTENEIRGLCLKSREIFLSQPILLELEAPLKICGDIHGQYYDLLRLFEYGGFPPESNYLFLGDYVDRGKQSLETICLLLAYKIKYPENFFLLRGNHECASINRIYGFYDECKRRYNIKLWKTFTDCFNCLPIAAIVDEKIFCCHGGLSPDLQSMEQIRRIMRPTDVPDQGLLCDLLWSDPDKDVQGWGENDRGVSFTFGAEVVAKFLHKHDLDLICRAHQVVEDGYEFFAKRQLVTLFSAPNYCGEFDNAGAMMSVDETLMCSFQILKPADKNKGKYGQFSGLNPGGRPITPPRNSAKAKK

Row | Compound | inhibition
1 | COc1cc(Br)c(C(=O)c2nccc3cc(OC)c(OC)cc23)cc1OC | 9.5% (inactive)
2 | COc1cnc(-c2ccccn2)nc1Oc1cccc(Cl)c1 | 3.5% (inactive)
3 | O=C(NC1(O)C(=O)c2ccccc2C1=O)c1c(Cl)cccc1Cl | 33.1% (inactive)
4 | Cc1cc(C)c(S(=O)(=O)/N=C2\C=C(Sc3ncn[nH]3)C(=O)c3ccccc32)cc1C | 30.5% (inactive)
5 | Oc1cccc(/C=N/Nc2cc(N3CCCC3)nc(N3CCCC3)n2)c1 | 20.3% (inactive)
6 | CCCN(CC1CC1)c1nc(N)c2c(N)nc(OC)cc2c1C#N | 8.48% (inactive)
7 | COc1cnc(-c2ccccn2)nc1Sc1ccc(Cl)cc1 | 12.2% (inactive)
8 | CCOC(=O)c1cnc(-n2cc(C)cn2)nc1NCc1ccc2c(c1)OCO2 | 21.6% (inactive)
9 | c1ccc(-c2nccc(-c3ccc(-n4cnc5ccccc54)cc3)n2)nc1 | 43% (inactive)
10 | COc1cnc(-c2ccccn2)nc1Sc1ccccc1 | 0.752% (inactive)
11 | CCCCn1c(NC(=O)c2ccco2)c(C(=O)OCC)c2nc3ccccc3nc21 | 29.8% (inactive)
12 | COc1ccc(CN2C(=O)Cc3c2nc(N)c2c(N)nc(N4CCCCC4)c(C#N)c32)cc1 | 45.7% (inactive)
13 | COc1ccccc1Sc1nc(-c2ccccn2)ncc1OC | -0.402% (inactive)
14 | O=C(NC1(O)C(=O)c2ccccc2C1=O)c1ccc(C(F)(F)F)cc1 | 39.2% (inactive)
15 | O=C(NC1(O)C(=O)c2ccccc2C1=O)c1ccccc1 | 30.4% (inactive)
16 | O=C(O)C1C2CCC(O2)C1C(=O)NC1CCCCC1 (stereo not given) | 66.1% (inactive)
17 | CCOC(=O)c1cnc(-n2nc(C)cc2C)nc1NCc1ccccc1 | 7.11% (inactive)
18 | CN1CCN(C(c2ccccn2)c2cc(Cl)c3cccnc3c2O)CC1 (stereo not given) | 97%
19 | CCn1c2ccccc2c2cc(NC(=O)COC(=O)c3ccc(NC(=O)CC#N)cc3)ccc21 | 74.6%
20 | CCOC(=O)c1nn(-c2ccc(C)cc2)c(=O)c2c(N)scc12 | 12.3% (inactive)
21 | O=C(O)c1cc(-c2ccc(Cl)c(Cl)c2)n(-c2ccccc2)n1 | 12.2% (inactive)
22 | CCOC(=O)c1sc2nc3c(SCC(=O)O)cc(C(=O)c4cc(F)ccc4O)cn3c(=O)c2c1C | 92.2%

Row | Compound | inhibition
23 | O=S(=O)(Cc1cc(NCc2ccccc2)nc(-c2ccccn2)n1)c1ccccc1 | 11.7% (inactive)
24 | CCOC(=O)C1=C(C)OC2(O)c3ccccc3C(=O)C12O (stereo not given) | 17.4% (inactive)
25 | Cc1[nH]n(-c2ccccc2)c(=O)c1C(c1ccc([N+](=O)[O-])cc1)c1c(C)[nH]n(-c2ccccc2)c1=O | 48.3% (inactive)
26 | Oc1ccccc1/C=N/Nc1cc(N2CCCC2)nc(N2CCCC2)n1 | 17.2% (inactive)
27 | Nc1cc2nsnc2cc1Br | 27.9% (inactive)
28 | COc1ccc2c(Cl)c(C(=O)N/N=C/c3ccc4c(c3)OCO4)sc2c1 | 33.4% (inactive)
29 | CC(=O)C(C(C)=O)C1(O)C(=O)c2ccccc2C1=O | 24.6% (inactive)
30 | COc1cnc(-c2ccccn2)nc1Sc1ccc(C)cc1 | 9.79% (inactive)
31 | O=C(O)c1n[nH]nc1-c1ccccc1 | 22.4% (inactive)
32 | CCOC(=O)c1cnc(-n2nc(C)cc2C)nc1NCCc1ccccc1 | 16.9% (inactive)
33 | CCOC(=O)c1cnc(-n2nc(C)cc2C)nc1NC1CCCCC1 | 16.3% (inactive)
34 | O=C1Nc2ccccc2N2CCCC12 (stereo not given) | 9.82% (inactive)
35 | N#Cc1c(N2CCCC(O)C2)nc(N)c2c(N)nc3c(c12)CC(=O)N3C12CC3CC(CC(C3)C1)C2 (stereo not given) | 24.2% (inactive)
36 | Cc1ccc(C(=O)NNc2cc(N3CCCC3)nc(N3CCCC3)n2)cc1 | 14.4% (inactive)
37 | COc1cnc(-c2ccccn2)nc1Sc1cccc(Cl)c1 | 23% (inactive)
38 | Oc1ccc(/C=N/Nc2cc(N3CCOCC3)nc(N3CCOCC3)n2)c(O)c1 | 20.3% (inactive)
39 | COc1ccc(OCCCC(=O)Nc2nc(-c3ccccn3)cs2)cc1 | 19.4% (inactive)
40 | Clc1ccc(-n2nnnc2-c2cnc(-c3ccccn3)nc2-c2cccs2)cc1 | 0.651% (inactive)
41 | CCOC(=O)c1cnc(-n2nc(C)cc2C)nc1NC(C)c1ccccc1 (stereo not given) | 15.8% (inactive)
42 | CCCCN(CC)c1nc(N)c2c(N)nc(OCC)cc2c1C#N | 17.2% (inactive)
43 | COc1ccc(Cl)cc1C(=O)Nc1cccc(-c2ccc3nncn3n2)c1 | 61.7% (inactive)
44 | CCOc1ccc(NC(=S)Nc2ccc3nsnc3c2)cc1 | 9.35% (inactive)

Row | Compound | inhibition
45 | COc1ccc(NC(=O)C2C3CCC(O3)C2C(=O)O)c(OC)c1 (stereo not given) | 73.9%
46 | COc1ccc(Cn2c(N)c(C(=O)NCc3ccco3)c3nc4ccccc4nc32)cc1OC | 8.99% (inactive)
47 | N#Cc1c(-c2ccc(Cl)cc2)cc(-c2cccs2)nc1SCC(=O)O | 81.6%
48 | CC(C)(CS(=O)(=O)[O-])NC(=O)CC[N+](C)(C)CCO | 3.71% (inactive)
49 | CCOC(=O)c1sc(N2C(=O)C(O)=C(C(=O)c3ccco3)C2c2cccc([N+](=O)[O-])c2)nc1C (stereo not given) | 51.3% (inactive)
50 | COc1cnc(-c2ccccn2)nc1Oc1cccc(C(F)(F)F)c1 | 0.507% (inactive)
51 | COc1ccc(C(=O)c2nccc3cc(OC)c(OC)cc23)cc1OC | 9.58% (inactive)
52 | c1ccc(Nc2nc(-c3ccccn3)cs2)cc1 | 13.2% (inactive)
53 | Cc1ccc(C(=O)NC2(O)C(=O)c3ccccc3C2=O)cc1C | 29.6% (inactive)
54 | O=C(O)c1cc(-c2ccc(Cl)cc2)n(-c2cccc(Cl)c2)n1 | 12% (inactive)
55 | Cc1nnc(NC(=O)C2C3C=CC(O3)C2C(=O)O)s1 (stereo not given) | 56.1% (inactive)
56 | O=C1CCCC2=C1C1(O)C(=O)c3ccccc3C1(O)O2 (stereo not given) | 19.8% (inactive)
57 | COc1ccc(Sc2nc(-c3ccccn3)ncc2OC)cc1 | -0.0224% (inactive)
58 | COc1cnc(-c2ccccn2)nc1Sc1ccc(F)cc1 | 3.69% (inactive)
59 | Nc1nc(-c2ccccn2)nc(N)c1Cc1ccc(Cl)cc1Cl | 22.1% (inactive)
60 | O=c1[nH]c(Nc2ccccc2)cc2ccccc12 | 19% (inactive)
61 | O=C(Nc1nc(-c2ccccn2)cs1)C1CC(=O)N(c2ccc3c(c2)OCCO3)C1 (stereo not given) | 19.7% (inactive)
62 | O=C(O)c1cc(-c2ccc(Cl)c(Cl)c2)n(-c2ccc(F)cc2)n1 | 8.75% (inactive)
63 | Cc1ccc(-n2nc(C(=O)O)cc2-c2ccc(Cl)cc2)cc1 | 5.4% (inactive)
64 | COc1ccc(NC(=S)Nc2ccc3nsnc3c2)cc1 | 13.3% (inactive)
65 | COc1cnc(-c2ccccn2)nc1Sc1ccccc1Cl | 9.17% (inactive)
